Results published in patent publication US10975355B2, “Controlled induction of human pancreatic progenitors produces functional beta-like cells” (THE REGENTS OF THE UNIVERSITY OF CALIFORNIA, priority 2015, dated 2021).

Columns and labels:
Format in all cases: cell-based, human
[1] = system: MEL1 INS^GFP/W reporter cells (hESC); assay: Flow cytometric analysis of pancreatic progenitor/endocrine markers in differentiating hESC spheres; details: for generation of PDX1+ cells over base media alone: group 1, factor alone days 6-8 (conditions 2 and 3), day 9.5
Experimental: Undifferentiated MEL1 INS^GFP/W reporter cells (Micallef et al, 2012) were maintained on mouse embryo fibroblast feeder layers (Millipore) in hESC media as described (Guo et al, 2013b). Suspension-based differentiations were carried out as follows. Briefly, confluent cultures were dissociated into single cell suspension by incubation with TrypLE (Gibco). Cells were counted and each well of 6-well low-adherence plates were seeded with 5.5×10^6 cells in 5.5 ml hES media supplemented with 10 ng/ml Activin A (R&D systems) and 10 ng/ml HeregulinB1 (Peprotech). Plates were placed on an orbital shaker at 100 rpm to induce sphere formation, as described (Schulz et al, 2012). To induce definitive endoderm differentiation, aggregates were collected 24 hours later in a 50 ml falcon tube, allowed to settle by gravity, washed once with PBS and re-suspended in d1 media (RPMI (Gibco) containing 0.2% FBS, 1:5000 ITS (Gibco), 100 ng/ml Activin A, and 50 ng/ml WNT3a (R&D systems)). Clusters from 3 wells were combined into 2 wells at this point and distributed into fresh low-attachment plates in 5.5 ml d1 media. Media thereafter was changed daily, by removing either 4.5 ml media (at the end of d1) or 5.5 ml media the following days and adding back 5.5 ml fresh media until day 9. After day 9, only 5 ml of media was removed and added daily.
Briefly, spheres were collected and allowed to settle by gravity. Clusters were washed once in PBS and dissociated by gentle pipetting after 12-15 minutes incubation in Accumax (innovative cell technologies). For sorting, cell suspension were filtered and re-suspended in FACS buffer consisting of phosphate-buffered saline (PBS) (UCSF cell culture facility) containing 2 mM EDTA (Ambion) and 1% BSA (Sigma). Dead cells were excluded by DAPI (Sigma) staining. Cell sorting was performed on a FACS Aria II (BD Bioscience). For flow-based analysis, dissociated cells were fixed with 4% paraformaldehyde (Electron Microscopy Science) for 15 minutes at room temperature, followed by two washes in PBS. Samples were either stored at 4 C or immediately stained with directly conjugated antibodies. Data analysis was performed with FlowJo software. Mouse Glucagon and mouse human C-peptide antibodies were conjugated in-house by the UCSF Antibody Core and/or with Antibody Labeling Kits (Molecular Probes) according to manufacturer's instructions. […]
To characterize the type of progenitors present in differentiating cultures at the point of endocrine induction, we performed a detailed time course analysis for the expression of pancreatic markers PDX1, NKX6.1, NEUROG3, GCG and INS (FIG. 7). […] Indeed, the expression of NEUROG3 can be detected as early as day 6, when NKX6.1 protein is absent from all cells (FIGS. 7A and B). […]

[2] = system: NEUROG3 and NKX2.2 mRNA transcripts; assay: qPCR analysis of NEUROG3 and NKX2.2 transcripts at day 8 of differentiation; details: day 8, compared to RCN condition / during RCN or R treatment
Experimental: Total RNA was isolated with TRIZOL (Sigma) or micro/mini RNAeasy kit (Qiagen) and reverse transcribed using the iScript cDNA Kit (Bio-Rad) according to manufacturer's instructions. qPCR analysis was performed on an ABI 7900 HT Fast Real-Time PCR System (Applied Biosystems) and CFX Connect Real Time System (Biorad) using standard protocols. Primers were Taqman Probes (Applied Biosystems) and/or as published previously (Liu et al, 2014). P-values were calculated using a two-tailed student's t-test.
To characterize the type of progenitors present in differentiating cultures at the point of endocrine induction, we performed a detailed time course analysis for the expression of pancreatic markers PDX1, NKX6.1, NEUROG3, GCG and INS (FIG. 7). […] Indeed, the expression of NEUROG3 can be detected as early as day 6, when NKX6.1 protein is absent from all cells (FIGS. 7A and B). […] We thus expected that robust generation of PDX1+/NKX6.1+ progenitor cells prior to induction of NEUROG3 would allow efficient generation of beta-like cells in vitro. […] Spheres cultured under each condition were analyzed at day 9.5 by flow cytometry to quantify the expression of PDX1 and NKX6.1, and by conventional immunofluorescence analysis for NKX6.1 and NEUROG3 expression. […]

[3] = system: NEUROG3 expression in hESC-derived clusters; assay: Immunofluorescence (whole mount / sections) for NEUROG3 protein in differentiated clusters; details: day 9.5, whole mount staining
Experimental: Spheres were fixed for 15-30 minutes at room temperature with 4% paraformaldehyde, followed by multiple washes in PBS. Whole mount staining was performed in suspension, by first blocking overnight at 4° C. in blocking buffer consisting of CAS-block (Invitrogen) with 0.2% TritonX (Fisher). Primary antibodies were incubated overnight at 4° C. in blocking buffer, followed by washes in PBS containing 0.1% Tween-20 (PBS-T, Sigma) and incubation in appropriate secondary antibodies diluted in PBS-T overnight at 4° C. The next day, clusters were washed in PBS-T followed by PBS and mounted with Vectashield (Vector) on glass slides. For sectioning of clusters, spheres were embedded in 2% Agar (Sigma), followed by dehydration, paraffin embedding, and sectioning. […]
To characterize the type of progenitors present in differentiating cultures at the point of endocrine induction, we performed a detailed time course analysis for the expression of pancreatic markers PDX1, NKX6.1, NEUROG3, GCG and INS (FIG. 7). […] Indeed, the expression of NEUROG3 can be detected as early as day 6, when NKX6.1 protein is absent from all cells (FIGS. 7A and B). […] Spheres cultured under each condition were analyzed at day 9.5 by flow cytometry to quantify the expression of PDX1 and NKX6.1, and by conventional immunofluorescence analysis for NKX6.1 and NEUROG3 expression. […]

Molecule: CC1=C(/C=C/C(C)=C/C=C/C(C)=C/C(=O)O)C(C)(C)CCC1 [retinoic acid]
- PDX1 positive progenitors ([1]; group 1, exposure days 6-8, alone or combined (conditions 4, 5, 6), analysed day 9.5): > 88%
- PDX1+ pancreatic progenitors generated ([1]; retinoic acid alone): more than 98%

Molecule: CC1=C2C[C@H]3[C@@H](CC=C4C[C@@H](O)CC[C@@]43C)[C@@H]2CC[C@]12O[C@@H]1C[C@H](C)CN[C@H]1[C@H]2C [C, Cyclopamine]
- generation of PDX1+ cells over base media alone [1]: did not result in enhanced generation of PDX1+ cells

Molecule: O=C1O[C@H]([C@@H](O)CO)C(O)=C1O [Vitamin C]
- NEUROG3 and NKX2.2 mRNA transcripts [2]: did not significantly lower

B1: N: the BMP inhibitor Noggin (N) (protein, UniProt Q13253 28-232, looked up)
Noggin: QHYLHIRPAPSDNLPLVDLIEHPDPIFDPKEKDLNETLLRSLLGGHYDPGFMATSPPEDRPGGGGGAAGGAEDLAELDQLLRQRPSGAMPSEIKGLEFSEGLAQGKKQRLSKKLRRKLQMWLWSQTFCPVLYAWNDLGSRFWPRYVKVGSCFSKRSCSVPEGMVCKPSKSVHLTVLRWRCQRRGGQRCGWIPIQYPIISECKCSC
- generation of PDX1+ cells over base media alone [1]: did not result in enhanced generation of PDX1+ cells
- formation of NEUROG3 positive endocrine precursors [3]: induced
